“And” between values parts separate entries of the source, which are not always exact repeats. Equal entries are not always repeated. Toxic doses and inconclusive results are not listed. No stated cut-off is given here; in the data, active means T/C of 150% or more; inactive means T/C below 125%.
Test system: L1210 leukemia ip in BDF1 mice, survival T/C
Assay: NCI In Vivo Anticancer Drug Screen. Data for tumor model L1210 Leukemia (intraperitoneal) in B6D2F1 (BDF1) mice
Conditions: endpoint: mean survival time, higher = longer survival
Method in brief: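 In this screen, tumor-bearing mice given compound are compared to those given vehicle, and their survival values are reported as a treated-to-control quotient.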

[1] = dose: 100.0 mg/kg/injection, schedule: Q01DX001 (ip), vehicle: Klucel (hydroxypropylcellulose) (HPC)
[2] = dose: 200.0 mg/kg/injection, schedule: Q01DX001 (ip), vehicle: Klucel (hydroxypropylcellulose) (HPC)
[3] = dose: 400.0 mg/kg/injection, schedule: Q01DX001 (ip), vehicle: Klucel (hydroxypropylcellulose) (HPC)
[4] = dose: 100.0 mg/kg/injection, schedule: Q01DX001 (ip), vehicle: saline
[5] = dose: 200.0 mg/kg/injection, schedule: Q01DX001 (ip), vehicle: saline
[6] = dose: 400.0 mg/kg/injection, schedule: Q01DX001 (ip), vehicle: saline
[7] = dose: 50.0 mg/kg/injection, schedule: Q01DX009 (ip), vehicle: Klucel (hydroxypropylcellulose) (HPC)
[8] = dose: 100.0 mg/kg/injection, schedule: Q01DX009 (ip), vehicle: Klucel (hydroxypropylcellulose) (HPC)
[9] = dose: 100.0 mg/kg/injection, schedule: Q04DX003 (ip), vehicle: Klucel (hydroxypropylcellulose) (HPC)
[10] = dose: 200.0 mg/kg/injection, schedule: Q01DX009 (ip), vehicle: Klucel (hydroxypropylcellulose) (HPC)
[11] = dose: 50.0 mg/kg/injection, schedule: Q01DX009 (ip), vehicle: saline
[12] = dose: 100.0 mg/kg/injection, schedule: Q01DX001 (ip), vehicle: other
[13] = dose: 100.0 mg/kg/injection, schedule: Q01DX009 (ip), vehicle: saline with Tween-80
[14] = dose: 200.0 mg/kg/injection, schedule: Q01DX001 (ip), vehicle: other
[15] = dose: 200.0 mg/kg/injection, schedule: Q01DX009 (ip), vehicle: saline with Tween-80

Measured: T/C

CC(=O)Nc1nc(C)c(CCCOc2ccc([N+](=O)[O-])cc2)c(Cl)n1
inactive: [1] 100 % of control | [2] 97 % of control | [3] 97 % of control

COc1cc2cc(C(=O)O)sc2cc1OC
inactive: [4] 91 % of control | [5] 91 % of control | [6] 91 % of control

COc1cc(OC)cc(C(N)=O)c1
inactive: [7] 88 % of control | [8] 97 % of control | [9] 86 % of control | [10] 91 % of control | dose: 400.0 mg/kg/injection, schedule: Q04DX003 (ip), vehicle: Klucel (hydroxypropylcellulose) (HPC) 86 % of control

O=C(O)c1cc(Cl)ccc1Br
inactive: [7] 104 % of control | [8] 100 % of control | dose: 100.0 mg/kg/injection, schedule: Q04DX003 (ip), vehicle: saline with Tween-80 100 % of control | [10] 105 % of control | dose: 200.0 mg/kg/injection, schedule: Q04DX003 (ip), vehicle: saline with Tween-80 104 % of control | dose: 400.0 mg/kg/injection, schedule: Q04DX003 (ip), vehicle: saline with Tween-80 94 % of control

Nc1nc(N)c(N=Nc2ccccc2S(=O)(=O)O)c(=O)[nH]1
inactive: dose: 12.5 mg/kg/injection, schedule: Q01DX009 (ip), vehicle: saline 97 % of control | dose: 25.0 mg/kg/injection, schedule: Q01DX009 (ip), vehicle: saline 97 % of control | [11] 100 % of control | dose: 50.0 mg/kg/injection, schedule: Q04DX003 (ip), vehicle: saline 101 % of control | [4] 96 % of control | [5] 98 % of control | [6] 104 % of control

O=C(Nc1ccccc1F)Oc1ccc([N+](=O)[O-])cc1
inactive: dose: 25.0 mg/kg/injection, schedule: Q01DX009 (ip), vehicle: Klucel (hydroxypropylcellulose) (HPC) 106 % of control | [7] 95 % of control | [8] 94 % of control and 112 % of control

NNC(=O)c1ccccc1O
inactive: dose: 50.0 mg/kg/injection, schedule: Q01DX001 (ip), vehicle: other 105 % of control | dose: 50.0 mg/kg/injection, schedule: Q01DX009 (ip), vehicle: saline with Tween-80 90 % of control | [12] 100 % of control | [13] 97 % of control | [14] 97 % of control | [15] 102 % of control

COc1cc(C(C)=O)ccc1O
inactive: dose: 100.0 mg/kg/injection, schedule: Q04DX002 (ip), vehicle: Klucel (hydroxypropylcellulose) (HPC) 99 % of control | dose: 200.0 mg/kg/injection, schedule: Q04DX002 (ip), vehicle: Klucel (hydroxypropylcellulose) (HPC) 89 % of control | dose: 400.0 mg/kg/injection, schedule: Q04DX002 (ip), vehicle: Klucel (hydroxypropylcellulose) (HPC) 89 % of control

C=CC[Se]CC=C
inactive: [9] 106 % of control | dose: 200.0 mg/kg/injection, schedule: Q04DX003 (ip), vehicle: Klucel (hydroxypropylcellulose) (HPC) 121 % of control

[O-]/[N+](C/[N+]([O-])=N\OCCCl)=N\OCCCl
inactive: [1] 91 % of control | [2] 91 % of control | [3] 91 % of control

O=C(CNC(=O)c1ccccc1)N/N=C/c1cccc2ccccc12
inactive: [13] 89 % of control | [15] 94 % of control | dose: 400.0 mg/kg/injection, schedule: Q01DX009 (ip), vehicle: saline with Tween-80 94 % of control

O=NN(C(=O)NC1CCCCC1Cl)C1CCCCC1Cl (centres undefined)
inactive: dose: 8.0 mg/kg/injection, schedule: Q01DX001 (ip), vehicle: carboxymethylcellulose (CMC) 102 % of control | dose: 12.0 mg/kg/injection, schedule: Q01DX001 (ip), vehicle: carboxymethylcellulose (CMC) 106 % of control | dose: 18.0 mg/kg/injection, schedule: Q01DX001 (ip), vehicle: carboxymethylcellulose (CMC) 106 % of control | dose: 26.0 mg/kg/injection, schedule: Q01DX001 (ip), vehicle: carboxymethylcellulose (CMC) 106 % of control | dose: 40.0 mg/kg/injection, schedule: Q01DX001 (ip), vehicle: carboxymethylcellulose (CMC) 107 % of control | dose: 60.0 mg/kg/injection, schedule: Q01DX001 (ip), vehicle: carboxymethylcellulose (CMC) 98 % of control | dose: 93.0 mg/kg/injection, schedule: Q01DX001 (ip), vehicle: carboxymethylcellulose (CMC) 104 % of control | dose: 187.0 mg/kg/injection, schedule: Q01DX001 (ip), vehicle: carboxymethylcellulose (CMC) 102 % of control | dose: 375.0 mg/kg/injection, schedule: Q01DX001 (ip), vehicle: carboxymethylcellulose (CMC) 96 % of control

CCC1CC2CC(c3cc4c(cc3OC)N(C)C3C(O)(C(=O)OC)C(OC(C)=O)C5(CC)C=CCN6CCC43C65)c3[nH]c4ccccc4c3CCN(C1)C2 (centres undefined)
inactive: dose: 0.25 mg/kg/injection, schedule: Q01DX009 (ip), vehicle: Klucel (hydroxypropylcellulose) (HPC) 100 % of control | dose: 0.5 mg/kg/injection, schedule: Q01DX009 (ip), vehicle: Klucel (hydroxypropylcellulose) (HPC) 105 % of control | dose: 1.0 mg/kg/injection, schedule: Q01DX009 (ip), vehicle: Klucel (hydroxypropylcellulose) (HPC) 101 % of control | dose: 2.0 mg/kg/injection, schedule: Q01DX009 (ip), vehicle: Klucel (hydroxypropylcellulose) (HPC) 97 % of control | dose: 4.0 mg/kg/injection, schedule: Q01DX009 (ip), vehicle: Klucel (hydroxypropylcellulose) (HPC) 110 % of control | dose: 8.0 mg/kg/injection, schedule: Q01DX009 (ip), vehicle: Klucel (hydroxypropylcellulose) (HPC) 103 % of control

CCP(CC)c1cccc(OC(=O)NC)c1
inactive: dose: 5.0 mg/kg/injection, schedule: Q01DX001 (ip), vehicle: saline 110 % of control | dose: 10.0 mg/kg/injection, schedule: Q01DX001 (ip), vehicle: saline 104 % of control | dose: 20.0 mg/kg/injection, schedule: Q01DX001 (ip), vehicle: saline 107 % of control

CC(Cc1ccc(O)c(O)c1)C(C)Cc1ccc(O)c(O)c1 (centres undefined)
inactive: [11] 98 % of control | dose: 100.0 mg/kg/injection, schedule: Q01DX009 (ip), vehicle: saline 100 % of control | dose: 200.0 mg/kg/injection, schedule: Q01DX009 (ip), vehicle: saline 96 % of control | dose: 400.0 mg/kg/injection, schedule: Q01DX009 (ip), vehicle: saline 100 % of control

CN(C)CCSCCO
inactive: dose: 100.0 mg/kg/injection, schedule: Q04DX002 (ip), vehicle: saline 107 % of control | dose: 200.0 mg/kg/injection, schedule: Q04DX002 (ip), vehicle: saline 95 % of control | dose: 400.0 mg/kg/injection, schedule: Q04DX002 (ip), vehicle: saline 107 % of control

NCCN(CCN)CCN
inactive: dose: 50.0 mg/kg/injection, schedule: Q01DX001 (ip), vehicle: saline 108 % of control | [4] 96 % of control | [5] 96 % of control | [6] 124 % of control

CCOC(=O)c1ccc(NC(=S)Nc2ccccc2S)cc1
inactive: dose: 25.0 mg/kg/injection, schedule: Q04DX002 (ip), vehicle: saline with Tween-80 101 % of control | dose: 50.0 mg/kg/injection, schedule: Q04DX002 (ip), vehicle: saline with Tween-80 101 % of control | dose: 100.0 mg/kg/injection, schedule: Q04DX002 (ip), vehicle: saline with Tween-80 93 % of control and 87 % of control

CCCCCCS(=O)(=O)c1n[nH]c(=O)[nH]c1=O
inactive: [12] 98 % of control | [14] 95 % of control | dose: 400.0 mg/kg/injection, schedule: Q01DX001 (ip), vehicle: other 101 % of control
